Source: patent publication US8828971B2, “Galactose-pronged carbohydrate compounds for the treatment of diabetic nephropathy and associated disorders” (Galectin Therapeutics, Inc., priority 2012, dated 2014)

What was measured:
[1] = tested on: mouse model of diabetic nephropathy; test: Sirius red stained kidney sections with digital morphometry, mouse model of diabetic nephropathy; format: in vivo; details: diabetic mice, IV 40 mg/kg three times weekly for four weeks; for Sirius red staining (interstitial collagen between renal tubules), histological appearance: FIG. 2, 40 mg/kg
Method: Shown are low (×50) and high magnification (×200) pictures of the three experimental groups: 1) Normal mouse; 2) Diabetic mice treated with vehicle (phosphate buffered saline, treatment control); and 3) Diabetic mice treated with GR-MD-02/001 B (IV 40 mg/kg). The arrows point to a stained strand that indicates the presence of collagen type.
Statistical comparisons of the percent Sirius red staining shown for the three experimental groups: 1) Normal mouse; 2) Diabetic mice treated with vehicle (phosphate buffered saline, treatment control); and 3) Diabetic mice treated with GR-MD-02/001 B (IV 40 mg/kg).
(§1) The experimental model used in this example is the mouse in which diabetes was induced and a high fat diet was administered. Diabetes was induced immediately following birth with a single injection of streptozotocin. Four weeks later the mice were started on a high fat diet.
(§2) Diabetic mice were treated either with vehicle (phosphate buffered saline) or GR-MD-02/001B given intravenously in a dose of 40 mg/kg three times weekly for four weeks total. There were eight (8) mice in each group. Two normal mice were also utilized as a comparison group.
Sirius red reagent is used as a stain to evaluate the increase in extracellular matrix material in the interstitium between tubular cells. Minimal red staining is seen in the normal animals. However, there is an increase in staining seen in the vehicle treated control animals.
Thirty two (32) separate slides from each group were blindly evaluated by quantitative digital morphometry for the percent staining with Sirius red.

[2] = tested on: mouse model of diabetic nephropathy; test: PAS stained kidney sections, mouse model of diabetic nephropathy; format: in vivo; details: diabetic mice, IV 40 mg/kg three times weekly for four weeks
Method: Shown are low (×200) and high magnification (×400) pictures of the three experimental groups: 1) Normal mouse; 2) Diabetic mice treated with vehicle (phosphate buffered saline, treatment control); and 3) Diabetic mice treated with GR-MD-02/001 B (IV 40 mg/kg). The arrows point to a glomerulus.
as §1, §2
The diabetic mice had clear histological evidence of diabetic nephropathy as shown in pictures of PAS stained kidney sections in FIG. 1. […] In the vehicle treated control animals there is a clear increase in mesangial basement membrane material (the pink extracellular matrix) over the normal animals.

Substance: galactoarabino-rhamnogalacturonate [GR-MD-02/001B]
- Percent Sirius red staining by quantitative digital morphometry compared to vehicle treated controls ([1]; 32 slides per group, levels nearly the same as normal mice, FIG. 3): statistically significant decrease
- Sirius red staining (interstitial collagen between renal tubules), histological appearance [1]: marked reduction
- Sirius red staining (interstitial collagen between renal tubules), histological appearance ([1]; listed as GR-MD02/001B): reduced the deposition of matrix
- Mesangial extracellular matrix material (PAS stain, glomerulus) compared to vehicle treated control animals ([2]; FIG. 1): marked decrease
- Mesangial extracellular matrix material (PAS stain, glomerulus) compared to vehicle treated control animals ([2]; FIG. 1, listed as GR-MD02/001B): reduced the mesangial expansion of extracellular matrix
